What was measured:
ABUTH [1] = assay: Herbicidal pre-emergence action (Table A1); format: in vivo, Abutilon theophrasti; details: visual grading after ca. 3 weeks vs untreated controls (100% = plants have died off, 0% = as control plants)
Outline: (§1)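 Seeds of monocot and dicot weeds were sown in pots of sandy loam and covered with soil. Each pot held a double sowing: one monocotyledonous plus one dicotyledonous species.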

ECHCG [2] = assay: Herbicidal pre-emergence action (Table A2); format: in vivo, Echinochloa crus-galli; details: application rate 320 g/ha; visual grading after ca. 3 weeks
Outline: as §1

LOLRI [3] = assay: Herbicidal pre-emergence action (Table A3); format: in vivo, Lolium rigidum; details: application rate 320 g/ha, visual grading after ca. 3 weeks
Outline: as §1

MATIN [4] = assay: Herbicidal pre-emergence action (Table A4); format: in vivo, Matricaria inodora; details: application rate 320 g/ha; visual grading after ca. 3 weeks
Outline: as §1

SETVI [5] = assay: Herbicidal pre-emergence action (Table A5); format: in vivo, Setaria viridis; details: visual grading after ca. 3 weeks
Outline: as §1

POAAN [6] = assay: Herbicidal pre-emergence action (Table A7); format: in vivo, Poa annua; details: visual grading after ca. 3 weeks
Outline: as §1

ALOMY [7] = assay: Herbicidal pre-emergence action (Table A9); format: in vivo, Alopecurus myosuroides; details: application rate 1280 g/ha; visual grading after ca. 3 weeks
Outline: as §1

KCHSC [8] = assay: Herbicidal pre-emergence action (Table A10); format: in vivo, Kochia scoparia; details: visual grading after ca. 3 weeks
Outline: as §1

VERPE [9] = assay: Herbicidal pre-emergence action (Table A11); format: in vivo, Veronica persica; details: application rate 1280 g/ha; visual grading after ca. 3 weeks
Outline: as §1

ALOMY [10] = assay: Herbicidal post-emergence action (Table B2); format: in vivo, Alopecurus myosuroides; details: application rate 1280 g/ha; rated visually after about 3 weeks
Outline: (§2)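 Visual rating of activity versus untreated plants about 3 weeks after treatment: 0% means no difference from controls, 100% means complete kill. Test weeds were raised from seed in sandy loam under controlled greenhouse conditions and sprayed at the one-leaf stage.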

ECHCG [11] = assay: Herbicidal post-emergence action (Table B3); format: in vivo, Echinochloa crus-galli; details: rated visually after about 3 weeks
Outline: as §2

POAAN [12] = assay: Herbicidal post-emergence action (Table B7); format: in vivo, Poa annua; details: application rate 1280 g/ha
Outline: as §2

SETVI [13] = assay: Herbicidal post-emergence action (Table B8); format: in vivo, Setaria viridis
Outline: as §2

VERPE [14] = assay: Herbicidal post-emergence action (Table B10); format: in vivo, Veronica persica; details: application rate 1280 g/ha
Outline: as §2

ABUTH [15] = assay: Herbicidal pre-emergence action, section C (Table C1); format: in vivo, Abutilon theophrasti; details: visual grading after ca. 3 weeks
ALOMY [16] = assay: Herbicidal pre-emergence action, section C (Table C2); format: in vivo, Alopecurus myosuroides; details: visual grading after ca. 3 weeks
ECHCG [17] = assay: Herbicidal pre-emergence action, section C (Table C6); format: in vivo, Echinochloa crus-galli; details: application rate 80 g/ha; visual grading after ca. 3 weeks
LOLRI [18] = assay: Herbicidal pre-emergence action, section C (Table C7); format: in vivo, Lolium rigidum; details: application rate 320 g/ha; visual grading after ca. 3 weeks
MATIN [19] = assay: Herbicidal pre-emergence action, section C (Table C8); format: in vivo, Matricaria inodora; details: application rate 320 g/ha; visual grading after ca. 3 weeks
POLCO = assay: Herbicidal pre-emergence action, section C (Table C9); format: in vivo, Polygonum convolvulus; details: visual grading after ca. 3 weeks
SETVI [20] = assay: Herbicidal pre-emergence action, section C (Table C10); format: in vivo, Setaria viridis; details: visual grading after ca. 3 weeks
VERPE [21] = assay: Herbicidal pre-emergence action, section C (Table C11); format: in vivo, Veronica persica; details: application rate 320 g/ha; visual grading after ca. 3 weeks
VIOTR = assay: Herbicidal pre-emergence action, section C (Table C12); format: in vivo, Viola tricolor; details: application rate 80 g/ha; visual grading after ca. 3 weeks
ABUTH [22] = assay: Herbicidal post-emergence action, section E (Table E1); format: in vivo, Abutilon theophrasti; details: application rate 320 g/ha; assessed visually after ca. 3 weeks
Text: (§3) 2 to 3 weeks after sowing, the test plants were sprayed in the single-leaf stage.

ALOMY [23] = assay: Herbicidal post-emergence action, section E (Table E2); format: in vivo, Alopecurus myosuroides; details: application rate 80 g/ha; assessed visually after ca. 3 weeks
Text: as §3

ECHCG [24] = assay: Herbicidal post-emergence action, section E (Table E5); format: in vivo, Echinochloa crus-galli; details: application rate 320 g/ha; assessed visually after ca. 3 weeks
Text: as §3

SETVI [25] = assay: Herbicidal post-emergence action, section E (Table E8); format: in vivo, Setaria viridis; details: application rate 320 g/ha; assessed visually after ca. 3 weeks
Text: as §3

TRZAS = assay: Post-emergence effects on crop plants (Table F2); format: in vivo, Triticum aestivum; details: application rate 320 g/ha, crop plant TRZAS
Text: as §3

ORYZA [26] = assay: Post-emergence effects on crop plants (Table F3); format: in vivo, Oryza sativa; details: crop plant ORYZA
Text: as §3

BRSNW = assay: Post-emergence effects on crop plants (Table F5); format: in vivo, Brassica napus; details: application rate 320 g/ha, crop plant BRSNW
Text: as §3

STEME = assay: Herbicidal pre-emergence action (Table A6); format: in vivo, Stellaria media; details: application rate 320 g/ha; visual grading after ca. 3 weeks
Outline: as §1

AMARE [27] = assay: Herbicidal pre-emergence action (Table A8); format: in vivo, Amaranthus retroflexus; details: application rate 320 g/ha; visual grading after ca. 3 weeks vs untreated controls (100% = plants have died off, 0% = as control plants)
Outline: as §1

DIGSA [28] = assay: Herbicidal pre-emergence action (Table A12); format: in vivo, Digitaria sanguinalis; details: application rate 320 g/ha; visual grading after ca. 3 weeks
Outline: as §1

ABUTH [29] = assay: Herbicidal post-emergence action (Table B1); format: in vivo, Abutilon theophrasti; details: application rate 320 g/ha; treated at one-leaf stage; rated visually after about 3 weeks vs untreated controls (100% = plants have died, 0% = like control plants)
Outline: as §2

KCHSC [30] = assay: Herbicidal post-emergence action (Table B4); format: in vivo, Kochia scoparia; details: application rate 1280 g/ha; rated visually after about 3 weeks
Outline: as §2

MATIN [31] = assay: Herbicidal post-emergence action (Table B6); format: in vivo, Matricaria inodora; details: application rate 1280 g/ha; rated visually after about 3 weeks
Outline: as §2

AMARE [32] = assay: Herbicidal post-emergence action (Table B11); format: in vivo, Amaranthus retroflexus; details: application rate 1280 g/ha
Outline: as §2

DIGSA [33] = assay: Herbicidal post-emergence action (Table B12); format: in vivo, Digitaria sanguinalis; details: application rate 1280 g/ha
Method: Seeds of mono- and dicotyledonous weed plants were placed in plastic pots in sandy loam soil (doubly sown with in each case one species of mono- or dicotyledonous weed plants per pot), covered with soil and cultivated in a greenhouse under controlled growth conditions. 2 to 3 weeks after sowing, the test plants were treated at the one-leaf stage. […] After the test plants had been kept in the greenhouse under optimum growth conditions for about 3 weeks, the activity of the preparations was rated visually in comparison to untreated controls. For example, 100% activity = the plants have died, 0% activity = like control plants.

AMARE [34] = assay: Herbicidal pre-emergence action, section C (Table C3); format: in vivo, Amaranthus retroflexus; details: application rate 320 g/ha; visual grading after ca. 3 weeks
DIGSA [35] = assay: Herbicidal pre-emergence action, section C (Table C5); format: in vivo, Digitaria sanguinalis; details: application rate 80 g/ha; visual grading after ca. 3 weeks
Text: Seeds of mono- and dicotyledonous weed plants and crop plants were sown, in plastic or organic planting pots, in sandy loam and covered with soil. The compounds according to the invention, formulated in the form of wettable powders (WP) or as emulsifiable concentrates (EC), were applied to the surface of the covering soil as aqueous suspension or emulsion, with the addition of 0.5% of an additive, at an application rate of 600 1 of water/ha (converted). Following treatment, the pots were placed in a greenhouse and kept under optimum growth conditions for the test plants.

ZEAMX [36] = assay: Pre-emergence effects on crop plants (Table D1); format: in vivo, Zea mays; details: crop plant; application rate 80 g/ha; visual grading after ca. 3 weeks
ZEAMX [37] = assay: Post-emergence effects on crop plants (Table F1); format: in vivo, Zea mays; details: application rate 320 g/ha, crop plant ZEAMX
Text: as §3

GLXMA = assay: Post-emergence effects on crop plants (Table F4); format: in vivo, Glycine max; details: application rate 80 g/ha, crop plant GLXMA
Text: as §3

ORYZA [38] = assay: Pre-emergence effects on crop plants (Table D3); details: crop plant; application rate 80 g/ha; visual grading after ca. 3 weeks
Text: Seeds of mono- and dicotyledonous weed plants and crop plants were sown, in plastic or organic planting pots, in sandy loam and covered with soil. The compounds according to the invention, formulated in the form of wettable powders (WP) or as emulsifiable concentrates (EC), were applied to the surface of the covering soil as aqueous suspension or emulsion, with the addition of 0.5% of an additive, at an application rate of 600 1 of water/ha (converted).
Following treatment, the pots were placed in a greenhouse and kept under optimum growth conditions for the test plants.

## O=C1N(Cc2ccccc2)CCCC12CCCN(Cc1ccccc1F)C2=O (racemic) [I-010, 2-benzyl-8-(2-fluorobenzyl)-2,8-diazaspiro[5.5]undecane-1,7-dione]
ABUTH [1]; application rate 1280 g/ha
  pre-emergence activity against ABUTH: 90%
ECHCG [2]
  pre-emergence activity against ECHCG: 100%
LOLRI [3]; Lolium rigidum, pre-emergence, 504 h, read-out: pre-emergence activity against LOLRI
  pest or weed control at 320 g/ha: 100%
MATIN [4]
  pre-emergence activity against MATIN: 90%
SETVI [5]; application rate 1280 g/ha
  pre-emergence activity against SETVI: 90%
POAAN [6]; Poa annua, pre-emergence, 504 h, application rate 1280 g/ha, read-out: pre-emergence activity against POAAN
  pest or weed control at 1280 g/ha: 100%
ALOMY [7]
  pre-emergence activity against ALOMY: 90%
KCHSC [8]; application rate 1280 g/ha
  pre-emergence activity against KCHSC: 90%
VERPE [9]
  pre-emergence activity against VERPE: 90%
ALOMY [10]
  post-emergence activity against ALOMY: 90%
ECHCG [11]; Echinochloa crus-galli, post-emergence, 504 h, application rate 1280 g/ha, read-out: post-emergence activity against ECHCG
  pest or weed control at 1280 g/ha: 90%
POAAN [12]
  post-emergence activity against POAAN: 90%
SETVI [13]; application rate 1280 g/ha
  post-emergence activity against SETVI: 90%
VERPE [14]
  post-emergence activity against VERPE: 90%
ABUTH [15]; application rate 320 g/ha
  pre-emergence activity against ABUTH: 90%
ALOMY [16]; application rate 320 g/ha
  pre-emergence activity against ALOMY: 100%
ECHCG [17]
  pre-emergence activity against ECHCG: 100%
LOLRI [18]
  pre-emergence activity against LOLRI: 100%
MATIN [19]
  pre-emergence activity against MATIN: 90%
POLCO; application rate 320 g/ha
  pre-emergence activity against POLCO: 80%
SETVI [20]; application rate 80 g/ha
  pre-emergence activity against SETVI: 100%
VERPE [21]
  pre-emergence activity against VERPE: 80%
VIOTR
  pre-emergence activity against VIOTR: 80%
ABUTH [22]
  post-emergence activity against ABUTH: 80%
ALOMY [23]
  post-emergence activity against ALOMY: 80%
ECHCG [24]
  post-emergence activity against ECHCG: 90%
SETVI [25]
  post-emergence activity against SETVI: 80%
TRZAS
  post-emergence activity against TRZAS: 0%
ORYZA [26]; application rate 80 g/ha
  post-emergence activity against ORYZA: 0%
BRSNW
  post-emergence activity against BRSNW: 0%

## O=C1N(Cc2ccccc2F)CCCC12CCN(Cc1cccc(F)c1F)C2=O (racemic) [I-016]
ABUTH [1]; application rate 320 g/ha
  pre-emergence activity against ABUTH: 90%
ECHCG [2]
  pre-emergence activity against ECHCG: 100%
LOLRI [3]
  pre-emergence activity against LOLRI: 100%
MATIN [4]
  pre-emergence activity against MATIN: 90%
SETVI [5]; application rate 320 g/ha
  pre-emergence activity against SETVI: 100%
STEME
  pre-emergence activity against STEME: 90%
POAAN [6]; application rate 320 g/ha
  pre-emergence activity against POAAN: 100%
AMARE [27]
  pre-emergence activity against AMARE: 90%
ALOMY [7]
  pre-emergence activity against ALOMY: 90%
KCHSC [8]; application rate 320 g/ha
  pre-emergence activity against KCHSC: 90%
VERPE [9]
  pre-emergence activity against VERPE: 90%
DIGSA [28]
  pre-emergence activity against DIGSA: 100%
ABUTH [29]
  post-emergence activity against ABUTH: 90%
ECHCG [11]; application rate 320 g/ha
  post-emergence activity against ECHCG: 90%
KCHSC [30]
  post-emergence activity against KCHSC: 90%
MATIN [31]
  post-emergence activity against MATIN: 90%
POAAN [12]
  post-emergence activity against POAAN: 90%
SETVI [13]; application rate 320 g/ha
  post-emergence activity against SETVI: 90%
VERPE [14]
  post-emergence activity against VERPE: 90%
AMARE [32]
  post-emergence activity against AMARE: 90%
DIGSA [33]
  post-emergence activity against DIGSA: 90%
ABUTH [15]; application rate 80 g/ha
  pre-emergence activity against ABUTH: 80%
ALOMY [16]; application rate 80 g/ha
  pre-emergence activity against ALOMY: 90%
AMARE [34]
  pre-emergence activity against AMARE: 90%
DIGSA [35]
  pre-emergence activity against DIGSA: 100%
ECHCG [17]
  pre-emergence activity against ECHCG: 100%
LOLRI [18]
  pre-emergence activity against LOLRI: 100%
MATIN [19]
  pre-emergence activity against MATIN: 90%
POLCO; application rate 80 g/ha
  pre-emergence activity against POLCO: 90%
SETVI [20]; application rate 320 g/ha
  pre-emergence activity against SETVI: 100%
VERPE [21]
  pre-emergence activity against VERPE: 90%
VIOTR
  pre-emergence activity against VIOTR: 90%
ZEAMX [36]
  pre-emergence activity against ZEAMX: 0%
ZEAMX [37]
  post-emergence activity against ZEAMX: 0%
TRZAS
  post-emergence activity against TRZAS: 0%
ORYZA [26]; application rate 320 g/ha
  post-emergence activity against ORYZA: 0%
GLXMA
  post-emergence activity against GLXMA: 0%
ORYZA [38]
  pre-emergence activity against ORYZA: 0%

From patent publication EP4273147A1, “SUBSTITUTED SPIROLACTAMS, SALTS THEREOF AND THEIR USE AS HERBICIDALLY ACTIVE SUBSTANCES” (Bayer Aktiengesellschaft, priority 2022, dated 2023)
